The numbers were not newly measured in article PMC6277767, “Broad and Region-Specific Impacts of the Synthetic Cannabinoid CP 55,940 in Adolescent and Adult Female Mouse Brains” (Frontiers in Molecular Neuroscience, 2018), which cites them from elsewhere.

SMILES strings stand for the structures. Where only a bound is given, the exact number is not on record here.

One series concerns BV-2 microglial cells. More on the design: method as in Rimmerman et al., 2012. To be noted: ref Rimmerman et al., 2012; cited from earlier work.
The subject of series [1] is human peripheral blood mononuclear cells. Also noted: method as in Bileck et al., 2016. The conditions noted are these: 10 μM for 3 h; ref Bileck et al., 2016; cited from earlier work.
A further series relates to DAGLα. More on the design: method as in Ogasawara et al., 2016. The conditions noted are these: reductions measured at 2 h and 4 h post-injection; ref Ogasawara et al., 2016; cited from earlier work.
For series [2], the system named is CB1. More on the design: method as in Felder et al., 1995. To be noted: ref Felder et al., 1995; read-out: IC50, inhibition of adenylate cyclase at CB1; cited from earlier work.
On the set-up of series [3]: method as in Leishman et al., 2018. The conditions noted are these: acute exposure, all age groups; ref Leishman et al., 2018; cited from earlier work.
The subject of series [4] is CB1. The conditions noted are these: ref Brents et al., 2011; read-out: EC50, stimulated G-protein binding at CB1; cited from earlier work.
The next series relates to CB2. More on the design: method as in Felder et al., 1995. To be noted: ref Felder et al., 1995; read-out: IC50, inhibition of adenylate cyclase at CB2; cited from earlier work.

On to `C=C(C)[C@@H]1CCC(C)=C[C@H]1c1c(O)cc(CCCCC)cc1O` [CBD, cannabidiol], for which the “levels of AEA” value in the series with BV-2 microglial cells was “increased”.

As for `CCCCCCCC(C)(C)c1ccc([C@H]2CCC[C@@H](O)C2)c(O)c1` [CP 47,497-C8], in series [1], the “expression of 5-LOX compared to vehicle” value is 26 fold and the “expression of fatty acid synthase” value was “over twofold”.

`C#CCO[C@@H]1CC[C@H](Cc2ccccc2)N(C(=O)n2ncc(C(O)(c3ccc(F)cc3)c3ccc(F)cc3)n2)C1` [DH376]: the “time for reduced 2-AG, AA and AEA levels to return to baseline” value in the series with DAGLα is reported as no more than 8 h.

Usually IC50 stands for the concentration at which inhibition is half-maximal. As a reminder, the EC50 is the concentration needed to bring the measured effect to its halfway point. As to `CCCCCc1cc(O)c2c(c1)OC(C)(C)[C@@H]1CCC(C)=C[C@@H]21` [THC, Δ^9-tetrahydrocannabinol], the IC50 in the series with CB1 [2] is […]; in the series with CB2 it was 41.8 nM. Further, the “brain area with highest THC levels” value in series [3] was “HIPP”. Also, in the series on CB1 [4], the EC50 is […].
